Results: patent publication US12350269B2 (Alexion Pharmaceuticals, Inc., priority 2015, dated 2025)
Read-outs that look alike come from different tables or passages of the source.

Legend:
AMPK = assay: Purified kinase assay (Millipore); assay type: biochemical; conditions: 300 nM ATP
SYK = assay: Healthy normal human whole blood assay: B-cell, BCR stimulation, CD69 readout; assay type: cell-based
JAK1/3 = assay: Healthy normal human whole blood assay: T-cell, IL2 stimulation, pSTAT5 Y694 readout; assay type: cell-based
PKC = assay: Healthy normal human whole blood assay: T-cell, PMA stimulation, pERK Y204 readout; assay type: cell-based
[1] = Phase 1 study: pharmacokinetics following oral dosing; assay type: in vivo, human
Protocol: Study initiated at 15 mg QD (once daily) and dose-escalated in a 3+3 design with a 28 day safety window. Patients received a single dose on day 1 for 72 hour PK evaluation. Continuous dosing was then initiated on day 4.
A 3+3 dose escalation study with 28-day cycles was carried out; the doses studied ranged from 15 mg to 65 mg once daily and up to 45 mg twice daily. Patients received a single dose on day 1 for 72 hour PK evaluation. Continuous dosing was initiated on day 4. 43 patients with CLL/SLL or B cell NHL were dosed. Median age was 67 years (range 23-85) and median prior therapies (tx) was 3 (range 1-8).

BCR signaling = assay: Phase 1 study: whole blood PD, BCR signaling; assay type: in vivo, human
Protocol: (§1) Human Whole Blood Assays: Inhibition of SYK- and JAK-dependent and independent signaling was determined by stimulating human whole blood with various agonists against BCR and cytokine receptors. 100 μL aliquots of heparinized healthy human whole blood was stimulated as previously described (Coffey et al, J. of Pharm. and Experimental Therapeutics, 351:538-548, 2014), using an 8-point concentration curve to determine IC50's. Signaling and activation responses were determined by Fluorescence-activated cell sorting (“FACS”). For the clinical trial, whole blood samples were collected prior to and after dosing. Percent inhibition was calculated by normalizing to the pre-dose stimulation response.
(§2) Pharmacokinetics (“PK”), pharmacodynamics (“PD”), and safety were monitored. Response was assessed by standard criteria. The level of inhibition of SYK and JAK was determined using a variety of whole blood assays measuring signaling via receptors for the B-cell antigen, IL2, IL4, IL6, and GM-CSF. Serum markers of tumor burden, including CCL3, CCL4, and other markers of inflammation (β2M and CRP), were also being measured.

IL2, IL4, IL6 signaling = assay: Phase 1 study: whole blood PD, IL2, IL4, IL6 (JAK/STAT) signaling; assay type: in vivo, human
Protocol: as §1, §2

[2] = system: serum inflammation markers (β2M, CRP, CCL4); assay: Phase 1 study: serum markers of inflammation; assay type: in vivo, human
Protocol: Cytokine Analysis: Serum protein was analyzed by Myriad RBM (Austin, TX) using the Human Inflammation Map.
as §2

primary CLL cells = assay: Primary CLL cell viability assay (propidium iodide, 72 hours); assay type: cell-based, human
Protocol: Isolated CLL cells were cultured in RPMI-1640 with 15% fetal bovine serum (Gibco, Grand Island, NY, USA), penicillin (100 IU), and streptomycin (100 μg/mL), at a density of 1×10^7 cells/mL in the presence or absence of […] CpG, 100 ng/mL CD40L, 10 ng/mL IL-4. Anti-IgM stimulation was conducted with plate-bound anti-IgM (10 μg/mL). CLL cells were stimulated with 10 ng/mL IL-6 (R&D Systems, Minneapolis, MN), to detect the phosphorylation of JAK1/JAK2 (Cell Signaling Technology, Danvers, MA) and STAT3 (Cell Signaling Technology, Danvers, MA, USA).
Ten thousand events in a live cell gate were counted by a FACS LSR2 (BD Biosciences) and the data was normalized to the matched vehicle control for each specimen (100%). IC50 was then generated using the GraphPad Prism 6 program (San Diego, CA, USA).

[3] = system: WT BTK-transfected TMD8 cells; assay: Cell growth of transfected TMD8 cells (Muse Count & Viability); assay type: cell-based; conditions: 250 nM, 7 days
From the text: Cell transfection, cell count and viability assay: TMD8 cells were transfected with constructs of WT BTK or BTK^C481S mutants using kit V, Program U-13 on Amaxa Nucleofector, according to the manufacturer's protocols (Amaxa, Cologne, Germany). After transfection, the cells were co-cultured with NKTert cells in a 24-well plate for 24 hrs for recovery.

Solubility = assay type: physicochemical; conditions: contemplated to limit dissolution
[4] = 15 mg/twice daily oral, Table 4, n=28
[5] = 15 mg/twice daily, Table 5, n=43
[6] = 20 mg/twice daily oral, Table 4, n=28
[7] = 20 mg/twice daily, Table 5, n=43
[8] = 45 mg/day oral, PK outlier removed, Table 4, n=28
[9] = 45 mg/twice daily, Table 5, n=43
[10] = 100 mg/day (one patient), Table 5

CCS(=O)(=O)N1CCN(c2ccc(Nc3ncc(C(N)=O)c(NC4CC4)n3)cc2)CC1 [cerdulatinib, 4-(cyclopropylamino)-2-(4-(4-(ethylsulfonyl)piperazin-1-yl)phenylamino)pyrimidine-5-carboxamide]
IC50 (AMPK): 0.006 µM | IC50 (SYK): 0.1 µM | IC50 (JAK1/3): 0.2 µM | IC50 (PKC): > 4 µM | AUC_tau ([1]; 15 mg/day oral, Table 4, n=28): 4.5 ± 0.8 µM·h | SS Cave ([1]; 15 mg/day oral, Table 4, n=28): 190 ± 30 nM | SS Cmin ([1]; 15 mg/day oral, Table 4, n=28): 120 ± 40 nM | T1/2 ([1]; 15 mg/day oral, Table 4, n=28): 11.5 ± 3.9 h | AUC_tau ([1]; 15 mg/day, Table 5, n=43): 4.5 ± 0.8 µM·h | SS Cave ([1]; 15 mg/day, Table 5, n=43): 190 ± 30 nM | SS Cmin ([1]; 15 mg/day, Table 5, n=43): 120 ± 40 nM | T1/2 ([1]; 15 mg/day, Table 5, n=43): 11.5 ± 3.9 h | SS Cave [1, 4]: 390 ± 110 nM | SS Cmin [1, 4]: 290 ± 110 nM | SS Cave [1, 5]: 390 ± 110 nM | SS Cmin [1, 5]: 290 ± 110 nM | SS Cave [1, 6]: 520 ± 90 nM | SS Cmin [1, 6]: 380 ± 20 nM | SS Cave [1, 7]: 520 ± 90 nM | SS Cmin [1, 7]: 380 ± 20 nM | SS Cave ([1]; 30 mg/day oral, Table 4, n=28): 310 ± 120 nM | SS Cmin ([1]; 30 mg/day oral, Table 4, n=28): 210 ± 120 nM | SS Cave ([1]; 30 mg/day, Table 5, n=43): 310 ± 120 nM | SS Cmin ([1]; 30 mg/day, Table 5, n=43): 210 ± 120 nM | steady-state Cmin exposure at plateau ([1]; 40 mg to 100 mg oral once daily): about 0.7 μM | SS Cave ([1]; 40 mg/day oral, Table 4, n=28): 1140 ± 30 nM | SS Cmin ([1]; 40 mg/day oral, Table 4, n=28): 870 ± 70 nM | SS Cave ([1]; 40 mg/day, Table 5, n=43): 1140 ± 30 nM | SS Cmin ([1]; 40 mg/day, Table 5, n=43): 870 ± 70 nM | SS Cmin ([1]; 45 mg BID dose): about 1.5 μM | Cave ([1]; 45 mg BID, n=20): 1400 ± 700 nM | Cmin ([1]; 45 mg BID, n=20): 1270 ± 600 nM | AUC_tau [1, 8]: 26.6 ± 13.9 µM·h | SS Cave [1, 8]: 1110 ± 600 nM | SS Cmin [1, 8]: 820 ± 600 nM | AUC_tau ([1]; 45 mg/day, Table 5, n=43): 26.6 ± 13.9 µM·h | SS Cave ([1]; 45 mg/day, Table 5, n=43): 1110 ± 600 nM | SS Cmin ([1]; 45 mg/day, Table 5, n=43): 820 ± 600 nM | Cmax ([1]; 45 mg/day, Table 5, n=43, read-out: SS Cmax): 1690 ± 600 nM | SS Cave [1, 9]: 1500 ± 450 nM | SS Cmin [1, 9]: 1480 ± 330 nM | SS Cave ([1]; 50 mg/day oral, Table 4, n=28): 1310 ± 410 nM | SS Cmin ([1]; 50 mg/day oral, Table 4, n=28): 900 ± 140 nM | SS Cave ([1]; 50 mg/day, Table 5, n=43): 990 ± 620 nM | SS Cmin ([1]; 50 mg/day, Table 5, n=43): 790 ± 370 nM | Cmax ([1]; 50 mg/day, Table 5, n=43, read-out: SS Cmax): 1570 ± 940 nM | steady state Cmin ([1]; 65 mg dose): approximately 1 μM | AUC_tau ([1]; 65 mg/day, Table 5, n=43): 24.2 ± 0.7 µM·h | SS Cave ([1]; 65 mg/day, Table 5, n=43): 1010 ± 30 nM | SS Cmin ([1]; 65 mg/day, Table 5, n=43): 760 ± 40 nM | Cmax ([1]; 65 mg/day, Table 5, n=43, read-out: SS Cmax): 1670 ± 90 nM | SS Cave [1, 10]: 680 nM | SS Cmin [1, 10]: 370 nM | average steady state (SS) Cave ([1]; 40-100 mg QD doses): 1070 ± 440 nM | average steady state (SS) Cmin ([1]; 40-100 mg QD doses, plateau): 770 ± 410 nM | Cmax ([1]; human, plasma, oral, 40 mg QD, read-out: steady-state concentrations Cmin to Cmax): 1000 to 2000 nM | plasma concentrations safely achieved in cancer patients ([1]; once daily oral dosing): above 2 μM | steady-state Cmin ([1]; once daily oral dosing, cancer patients): ~1000 nM | % Inhibition of BCR (Cmin-Cmax) (BCR signaling; 40-100 mg QD doses): 92-100% | inhibition of BCR signaling in whole blood (BCR signaling; FL patient, single 65 mg dose): complete inhibition | inhibition at 15 mg (BCR signaling; Homo sapiens, 15 mg/day, read-out: % Inh. BCR (Cmin-Cmax) Extrapolated from PK/PD fit of all data): 22 to 55% | inhibition at 30 mg (BCR signaling; Homo sapiens, 30 mg/day, read-out: % Inh. BCR (Cmin-Cmax) Extrapolated from PK/PD fit of all data): 31 to 83% | inhibition at 40 mg (BCR signaling; Homo sapiens, 40 mg/day, read-out: % Inh. BCR (Cmin-Cmax) Extrapolated from PK/PD fit of all data): 92 to 100% | inhibition at 100 mg (BCR signaling; Homo sapiens, 100 mg/day (one patient), read-out: % Inh. BCR (Cmin-Cmax) Extrapolated from PK/PD fit of all data): 53 to 98% | % Inhibition BCR signaling (BCR signaling; Patient 1, 65 mg PO QD): 100% | % Inhibition BCR signaling, pERK Y204 (BCR signaling; Patient 2): 0% | % Inhibition BCR signaling, pSYK Y525/525 (BCR signaling; Patient 2): 90% | BCR signaling pathway inhibition (BCR signaling; steady state Cmin/Cmax): 90-100% | JAK/STAT signaling inhibition (IL2, IL4, IL6 signaling; Cmin/Cmax): 60-80% | % Inhibition IL2, IL4, IL6 signaling (IL2, IL4, IL6 signaling; Patient 1, 65 mg PO QD): 60-100% | inhibition of serum markers of inflammation ([2]; QD dosing of 40-100 mg): significant inhibition | reduction of serum β2M (and other inflammation markers) ([2]; all dose levels tested clinically): Clear evidence for reduction | inhibition of serum inflammation markers (e.g., β2M, CRP, CCL4) ([2]; day 28 of cycle 1, plasma about 0.6 to 1 μM): 50-90% | serum proteins that are markers of inflammation (β2M, CRP, TNFR, CCL3/4) ([2]; patients): significantly reduced | sensitivity of CLL cells with high-risk genetic abnormalities (del (11q), trisomy 12, del(17p)) versus del (13q) or none (primary CLL cells): more sensitive | sensitivity of CLL cells with unmutated IGHV (N=33) versus mutated IGHV (N=27) (primary CLL cells; P=0.0395): more sensitive | cell growth [3]: similarly inhibited | solubility (Solubility): pH-dependent low solubility
